Values belong to the compound of their own block, whether it stands above or below them.
Legend:
[1] = system: HeLa (cervical adenocarcinoma) cells; test: IC50 (viability) in HeLa cells; type: cell-based, human; settings: for IC50: Homo sapiens, HeLa cells, cells printed in nM; for efficacy (effect on viability) in cancer cells vs. non-cancer cells: comparison of Table 3 IC50 values
Protocol: (§1) 19 variants with different structural modifications have been made. […] In particular, it is shown that C75 causes death in multiple cancer cells with IC50 values in the 100 nM range, including breast cancers (MCF7, BT549), lung cancer (A549), colorectal cancer (HCT116) in addition to HeLa cells (cervical cancer).

[2] = system: BT549 (breast ductal carcinoma) cells; test: IC50 (viability) in BT549 cells; type: cell-based; settings: Homo sapiens, BT-549
Protocol: as §1

[3] = system: A549 (lung carcinoma) cells; test: IC50 (viability) in A549 cells; type: cell-based; settings: Homo sapiens
Protocol: as §1

[4] = system: MCF-7 (mammary gland carcinoma) cells; test: IC50 (viability) in MCF-7 cells; type: cell-based; settings: Homo sapiens, MCF7
Protocol: as §1

[5] = system: MCF-10A (mammary gland fibrocystic disease) non-cancer cells; test: IC50 (viability) in MCF-10A non-cancer cells; type: cell-based; settings: Homo sapiens, MCF10A non-cancer cells
Protocol: as §1

[6] = system: HFF1 (fibroblast) non-cancer cells; test: IC50 (viability) in HFF1 non-cancer cells; type: cell-based; settings: Homo sapiens; HFF-1 non-cancer cells
Protocol: as §1

HeLa cells = test: Mitotic spindle / centrosome phenotype in HeLa cells (tubulin and DAPI staining, live imaging); type: cell-based, human
Protocol: There were more rounded mitotic cells after C75 treatment in comparison to the control. FIG. 1B) is a line graph showing the percentage of HeLa and HFF1 cells in mitosis after treatment with various concentrations of C75 for 8 hours. The bars indicate standard deviation. FIG. 1C) is a series of images showing cells that were fixed and co-stained for tubulin (microtubules) and DAPI (DNA). Treatment of HeLa cells with 300 nM C75 caused the mitotic spindles to be disorganized, while they were not affected in HFF1 cells. […] The scale bar for the cells is 10 μm. FIG. 1D) is a cartoon schematic showing the key features of a metaphase cell.
(§2) FIG. 2A) is a line graph showing the percentage of HCT116 (p53−/−) cells, A549 cells, HeLa cells and H1299 cells in mitosis after treatment with various concentrations of C75 for one population doubling time. All of the cell lines show an increase in the proportion of mitotic cells after treatment with 200 nM C75. The bars indicate standard deviation. […] While the mitotic spindles were not dramatically altered by C75 in HFF1 cells, they were monopolar (as shown) or fragmented in the other cell types. […] The mitotic spindles were more strongly fragmented after C75 treatment in these cells vs. the cells in FIG. 2B). […] While mitotic spindles recovered bipolarity after removing nocodazole, they remained multipolar after removing C75. FIG. 2F) is a series of time-lapse images of a live HeLa cell expressing GFP:tubulin after treatment with C75 as shown in 2D) and 2E). The scale bar for all cells is 10 μm. FIG. 2G) is a schematic showing the putative target for C75. Healthy cells have two centrosomes that separate and form a bipolar spindle, while cancer cells have aberrant centrosomes that cluster to form ‘pseudo’ bipolar spindles, and C75 may target this process and their integrity.
FIG. 3A) is a line graph showing the percentage of mitotic HeLa or HFF1 cells treated with a range of paclitaxel (Taxol™; tubulin-targeting drug) concentrations+/−C75 as indicated. The bars indicate standard deviation. FIG. 3B) is a series of bar graphs showing the proportion of HCT116 cells that have monopolar spindles, bipolar spindles with aligned chromosomes, bipolar spindles with misaligned chromosomes and multipolar/fragmented spindles after treatments as shown. Treatments include DMSO (control), varying concentrations of paclitaxel and/or varying concentrations of C75 after 7 hours. While treatment of HCT116 cells with 2.5 nM paclitaxel caused a threshold of mitotic spindle phenotypes, adding increasing concentrations of C75 in combination with 2.5 nM paclitaxel caused the phenotypes to progressively worsen. FIG. 3C) is bar graph showing the average distance between centrosome fragments in HCT116 cells after treatments as shown. While centrosome fragments moved closer together with increased concentrations of paclitaxel, they moved further apart with increased concentrations of C75. […] FIG. 3E) is a line graph showing the percentage of mitotic HeLa or HFF1 cells treated with a range of nocodazole concentrations+/−C75 as indicated. The bars indicate standard deviation. FIG. 3F) is a series of images showing fixed HeLa cells after treatment with C75+/− nocodazole co-stained for tubulin, γ-tubulin and DNA (DAPI). […] Adding nocodazole to cells treated with 300 nM C75 caused mitotic spindle phenotypes to worsen and appear more similar to those after treatment with 600 nM C75. The scale bar for all cells is 10 μm. FIG. 3G) is a bar graph showing the percentage of phenotypes observed for metaphase HeLa cells treated with nocodazole or C75, or both for 20 minutes (n>15 per treatment).
Spindle fragmentation only occurred after extensive microtubule depolymerization in colchicine-treated cells, while the spindle poles fragmented prior to changes in microtubules after C75 treatment. The scale bar for all cells is 10 μm.
C75 was further tested and found to cause mitotic arrest in HeLa cells. […]

HCT116 cells = test: Mitotic spindle phenotype and centrosome fragment distance in HCT116 cells; type: cell-based; settings: HCT116, paclitaxel alone
Protocol: as §2
FIG. 3A) is a line graph showing the percentage of mitotic HeLa or HFF1 cells treated with a range of paclitaxel (Taxol™; tubulin-targeting drug) concentrations+/−C75 as indicated. The bars indicate standard deviation. FIG. 3B) is a series of bar graphs showing the proportion of HCT116 cells that have monopolar spindles, bipolar spindles with aligned chromosomes, bipolar spindles with misaligned chromosomes and multipolar/fragmented spindles after treatments as shown. Treatments include DMSO (control), varying concentrations of paclitaxel and/or varying concentrations of C75 after 7 hours. While treatment of HCT116 cells with 2.5 nM paclitaxel caused a threshold of mitotic spindle phenotypes, adding increasing concentrations of C75 in combination with 2.5 nM paclitaxel caused the phenotypes to progressively worsen. FIG. 3C) is bar graph showing the average distance between centrosome fragments in HCT116 cells after treatments as shown. While centrosome fragments moved closer together with increased concentrations of paclitaxel, they moved further apart with increased concentrations of C75. […] FIG. 3E) is a line graph showing the percentage of mitotic HeLa or HFF1 cells treated with a range of nocodazole concentrations+/−C75 as indicated. The bars indicate standard deviation. […]
C75 was also tested for efficacy in different cancer cell lines. […] To further assess the role of C75 in affecting centrosomes, HeLa cells were treated with C75 for a short period of time (5 minutes), then C75 was removed and the cells were analyzed for spindle phenotypes (schematic in FIG. 2D). […]

- IC50 [1]: 845 nM
- IC50 [2]: 4.2 µM
- IC50 [3]: 0.75 µM
- IC50 [4]: 2.46 µM
SMILES: O=S(=O)(c1cccs1)N1Cc2ccccc2-c2sccc21 [Compound C87]
- IC50 [5]: 0.539 µM

- IC50 [1]: 197 nM
- IC50 [4]: 1.02 µM
SMILES: Cc1ccc(S(=O)(=O)N2Cc3ccccc3-c3sccc32)cc1 [Compound C91]
- efficacy (effect on viability) in cancer cells vs. non-cancer cells [1]: higher efficacy
- IC50 [6]: 0.92 µM

SMILES: COc1cc2c(c(OC)c1OC)-c1ccc(OC)c(=O)cc1[C@@H](NC(C)=O)CC2 [colchicine, reference compound]
- spindle phenotype at lower concentrations (HeLa cells; HeLa, 8 hours, 30 nM colchicine or 300 nM C75): bipolar spindles with less robust microtubules
- spindle phenotype at higher concentrations (HeLa cells; HeLa, 8 hours, 40 or 50 nM colchicine, 400 or 500 nM C75): fragmented spindles, but only after extensive loss of microtubules

SMILES: COC(=O)Nc1nc2ccc(C(=O)c3cccs3)cc2[nH]1 [nocodazole, reference compound]
- spindle phenotype after drug wash-out (HeLa cells; metaphase HeLa, 5 minutes treatment, washed out, imaged after 40 minutes): bipolar spindles reformed
- spindle phenotype, drugs alone vs. together (HeLa cells; metaphase HeLa, nocodazole or C75 or both, 20 minutes): bipolar spindles with weak microtubules

SMILES: COc1ccc(S(=O)(=O)N2Cc3ccccc3-c3sc(I)cc32)cc1 [Compound C207]
- efficacy (effect on viability) in cancer cells vs. non-cancer cells [1]: higher efficacy

SMILES: CC(=O)O[C@H]1C(=O)[C@@]2(C)[C@H]([C@H](OC(=O)c3ccccc3)[C@]3(O)C[C@H](OC(=O)[C@H](O)[C@@H](NC(=O)c4ccccc4)c4ccccc4)C(C)=C1C3(C)C)[C@]1(OC(C)=O)CO[C@@H]1C[C@@H]2O [paclitaxel, reference compound]
- change of centrosome fragment distance with increased paclitaxel concentration (HCT116 cells): significant decrease in fragment distance
